We go through two compounds from EP3449978A1, “INHIBITORS OF ARYL HYDROCARBON RECEPTOR FOR TREATING SOFT-TISSUE SARCOMA AND PREVENTING NEUROFIBROMA GROWTH AND/OR TRANSFORMATION TO MALIGNANT PERIPHERAL NERVE SHEATH TUMORS” (UNIVERSITE PARIS DESCARTES, priority 2017, dated 2019).

Molecules are shown by their SMILES.

Holding throughout (format): cell-based, human
Data set [1] has as its system AhR. The experiment in a line: Quantitative RT-PCR of AhR pathway genes in STS26T cells. Conditions: TMF 10µM, CH-223191 50µM, versus DMSO (Fig. 2C). As for the experimental part: • Figure 1: AHR signaling pathway is activated in Dermal and Plexiform Neurofibromas, and MPNST. • A, Total RNA was isolated from patients having Dermal Neurofibromas (n=8), Plexiform Neurofibromas (n=16) and […]=14). RT-qPCR were performed using primers recognizing specifically the genes indicated. […] Kruskal Wallis H test was used to compare MPNST vs Plexiform Neurofibromas vs Dermal Neurofibromas. • B and B', Representative immunohistochemical study of AhR in a case of MPNST. Formalin fixed, paraffin embedded MPNST samples were stained with Hematoxylin-eosin-saffron (HES) and antibody recognizing AhR has been used to detect AhR. A strong nuclear AhR staining is detected in a proportion of tumor cells while intra-tumoral vessels (arrows) whereas fibroblasts in a fibrous septa (*) taken as internal negative controls are not stained. • Figure 2: AhR inhibition induced death of MPNST cell lines (ST[…]) by apoptosis. • A, ST[…] cell line was reverse transfected with either non-transfected (NT) or siRNA (10 nM). The total RNA was then extracted from these cells. Quantitative real-time PCR experiments were performed using primers recognizing AhR, AHRR, ARNT, CYP1A1 and CYP1 B1. *p<0.05, by non-parametric Student's t-test. • B, Flow cytometry has been conducted to determine the percentage of cell population of living cells, apoptotic cells, late apoptosis and dead. […]

Data set [2] relates to 90-8 cells. The data set can be described thus: In vitro cytotoxicity assay (WST1 assay) in 90-8 cells. Conditions: 50 µM, WST1 assay (Fig. 3B).
Procedure: 90-8 cells were seeded in triplicate on 96-well plates. Cells were treated with either CH-223191 or 0.1% DMSO. Cytotoxicity was quantified 48 and 72 hours after treatment using WST1 assay (Roche). Relative cytotoxicity was determined as ratio of absorbance at 450 nm of cells treated with CH-223191 versus cells treated with DMSO. IC50 values corresponding to concentrations associated to 50% of cell viability after 72 hours of continuous exposure were determined.
Data set [3] deals with AhR. The data set can be described thus: Quantitative RT-PCR of AhR target and cell death genes in 90-8 cells.
Procedure: RT-qPCR were performed using primers recognizing specifically the genes indicated. […] The total RNA was then extracted from these cells. […] Quantitative real-time PCR experiments were performed using primers recognizing CYP1A1 and CYP1 B1. *p<0.05, **p<0.01, ***p<0.001 by students t-test. • B, Human MPNST cell line (90-8) was incubated with AhR antagonist CH-223191 (1, 5, 10, 50 and 100 µM) during 48h and 72h. […] E, Total RNA was extracted from 90-8 cell line. Quantitative real-time PCR experiments were performed using primers recognizing PUMA, GADD45 and IL1β. The RT-PCR was normalized using 26S RNA. Data represent the mean+/-SEM of at least 3 independent experiments. *p<0.05, **p<0.01, **p<0.001, by Student's t test.
The subject of data set [4] is 90-8 cells. The experiment in a line: Annexin V / PI flow cytometry in 90-8 cells. Conditions: 50µM, 48h and 72h, Annexin V and PI staining (Fig. 3C, 3D). The protocol: • Figure 1: AHR signaling pathway is activated in Dermal and Plexiform Neurofibromas, and MPNST. • A, Total RNA was isolated from patients having Dermal Neurofibromas (n=8), Plexiform Neurofibromas (n=16) and MPNST (n=14). RT-qPCR were performed using primers recognizing specifically the genes indicated. Table indicates median [range] mRNA levels. mRNA levels were normalized such that the median value of the dermal neurofibromas was 1. Kruskal Wallis H test was used to compare MPNST vs Plexiform Neurofibromas vs Dermal Neurofibromas. • B and B', Representative immunohistochemical study of AhR in a case of MPNST. […] A strong nuclear AhR staining is detected in a proportion of tumor cells while intra-tumoral vessels (arrows) whereas fibroblasts in a fibrous septa (*) taken as internal negative controls are not stained. • Figure 2: AhR inhibition induced death of MPNST cell lines (STS26T) by apoptosis. • A, STS26T cell line was reverse transfected with either non-transfected (NT) or siRNA (10 nM). […] Quantitative real-time PCR experiments were performed using primers recognizing AhR, AHRR, ARNT, CYP1A1 and CYP1 B1. *p<0.05, by non-parametric Student's t-test. • B, Flow cytometry has been conducted to determine the percentage of cell population of living cells, apoptotic cells, late apoptosis and dead. […]
A general note: In flow cytometry, cells or beads pass a laser one at a time.

The test system of a further data set is STS26T cells. The experiment in a line: Annexin V / PI flow cytometry in STS26T cells. As for the experimental part:
• Figure 1: AHR signaling pathway is activated in Dermal and Plexiform Neurofibromas, and MPNST. • A, Total RNA was isolated from patients having Dermal Neurofibromas (n=8), Plexiform Neurofibromas (n=16) and MPNST (n=14). RT-qPCR were performed using primers recognizing specifically the genes indicated. Table indicates median [range] mRNA levels. mRNA levels were normalized such that the median value of the dermal neurofibromas was 1. Kruskal Wallis H test was used to compare MPNST vs Plexiform Neurofibromas vs Dermal Neurofibromas. • B and B', Representative immunohistochemical study of AhR in a case of MPNST. Formalin fixed, paraffin embedded MPNST samples were stained with Hematoxylin-eosin-saffron (HES) and antibody recognizing AhR has been used to detect AhR. A strong nuclear AhR staining is detected in a proportion of tumor cells while intra-tumoral vessels (arrows) whereas fibroblasts in a fibrous septa (*) taken as internal negative controls are not stained. • Figure 2: AhR inhibition induced death of MPNST cell lines (STS26T) by apoptosis. • A, STS26T cell line was reverse transfected with either non-transfected (NT) or siRNA (10 nM). The total RNA was then extracted from these cells. Quantitative real-time PCR experiments were performed using primers recognizing AhR, AHRR, ARNT, CYP1A1 and CYP1 B1. *p<0.05, by non-parametric Student's t-test. • B, Flow cytometry has been conducted to determine the percentage of cell population of living cells, apoptotic cells, late apoptosis and dead. After 72h of medium change, cells are stained with Annexin and PI to detect the apoptosis and necrosis. Results represent the means +/- SEM of at least four independent experiments. *p<0.05, by non-parametric Student's t-test. • C, Total RNA was extracted from MPNST cell line STS26T treated either with TMF (10µM) and CH-223191 (50µM) or DMSO. Quantitative real-time PCR experiments were performed using primers recognizing CYP1A1, IL1β. The RT-PCR was normalized using TBP mRNA. Data represent the mean +/- SEM of at least 3 independent experiments. *p<0.05, by Student's t-test. • D, Human STS26T cell line was treated with either AHR antagonists CH-223191 (10µM and 50µM) or TMF (10µM) or DMSO. After 48h/72h of medium change, cells are stained with Annexin V and Propidium Iodide (PI) to detect apoptosis and necrosis. Flow cytometry has been conducted to determine the percentage of cell population of living cells (Annexin V-/PI-), apoptotic cells state (Annexin V+/PI-), late apoptosis state cells (Annexin V+/PI+) and dead cells (Annexin V-/PI+). […] Quantitative real-time PCR experiments were performed using primers recognizing CYP1A1 and CYP1 B1. *p<0.05, **p<0.01, ***p<0.001 by students t-test. • B, Human MPNST cell line (90-8) was incubated with AhR antagonist CH-223191 (1, 5, 10, 50 and 100 µM) during 48h and 72h. Cell viability was analyzed using WST1 assay. **p<.01, by Bonferroni's post hoc tests after two-way ANOVA when compared with DMSO. • C - D, Percentage of cell population of apoptotic (Annexin V+/PI-), dead (Annexin V-/PI+), necrotic (Annexin V+/PI+) and living (Annexin V-/PI-) cells were analyzed using flow cytometry. […] Quantitative real-time PCR experiments were performed using primers recognizing PUMA, GADD45 and IL1β. […]

Turning to `Cc1ccccc1N=Nc1ccc(NC(=O)c2ccnn2C)c(C)c1` [CH-223191], the “expression of AhR target gene: CYP1A” value with AhR [1] was “inhibited”. Besides, in the data set on 90-8 cells [2], the “decreased 90-8 cell viability” value amounted to 50%. For the same compound, in the data set on AhR [3] (90-8 cells (Fig. 3E)), the “expression of IL1β” value is reported as “reduced”; the “expression of PUMA and GADD45 genes” value was “enhanced”. Moreover, the “expression of the classical AhR target genes: CYP1A1 and CYP1B1” value in the data set on AhR [3] (90-8 cells, 50 µM (Fig. 3A)) is reported as “inhibited”. In the data set with 90-8 cells [4], the “number of dead cells, apoptosis and necrosis” value was “increased the number of dead cells and enhanced apoptosis and necrosis”. Further, the “cell death, apoptosis and necrosis” value in the data set on STS26T cells (STS26T, 50µM at 48h and 72h, Annexin V and PI staining (Fig. 2D)) is “increased cell death and enhanced apoptosis and necrosis”.

With `COc1ccc(-c2cc(=O)c3cc(OC)ccc3o2)c(OC)c1` [TMF, 6,2',4',-trimethoxyflavone], the “expression of AhR target gene: CYP1A” value in the data set with AhR [1] is given as “inhibited”. Moreover, the “effect on STS26T cell death” value in the data set with STS26T cells (10µM at 48h and 72h, compared with CH-223191) is given as “more potent effect than CH-223191”. Further, in the data set on STS26T cells (STS26T, 10µM, 72h), the cells necrotic is given as 30%, the cells underwent apoptosis amounted to 20% and the “decrease of cell viability” value is given as 50%.
